Data published in the supplement of paper PMC10307832.

Key:
Experiment in all cases: relative viability (nuclei count vs DMSO), 5 days (fraction); higher = more cells survive
[1] = compound: CCN1CCN(c2ccc(Nc3cc(N(C)C(=O)Nc4c(Cl)c(OC)cc(OC)c4Cl)ncn3)cc2)CC1 [BGJ398] + CS(=O)(=O)CCNCc1ccc(-c2ccc3ncnc(Nc4ccc(OCc5cccc(F)c5)c(Cl)c4)c3c2)o1 [Lapatinib] (partner 2 µM)
Procedure, shortened: (§1)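 Relative viability was taken as the ratio of nuclei in treated wells to nuclei in vehicle wells. Lung cancer cell lines in 1536-well plates received compounds by pin tool one day after seeding, either one drug alone or a fixed anchor-drug dose plus five library-drug doses (not always all listed) in √10 steps. Nuclei were counted on 4× images after 5 days of treatment, and values are medians of duplicate plates.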

[2] = compound: C1=CC2=NC=CN=C2C=C1/C=C/3\C(=O)NC(=O)S3 + CS(=O)(=O)N1CCN(Cc2cc3nc(-c4cccc5[nH]ncc45)nc(N4CCOCC4)c3s2)CC1 [Pictilisib] (partner 1 µM)
Procedure, shortened: as §1

[3] = compound: C1=CC2=NC=CN=C2C=C1/C=C/3\C(=O)NC(=O)S3 + CS(=O)(=O)CCNCc1ccc(-c2ccc3ncnc(Nc4ccc(OCc5cccc(F)c5)c(Cl)c4)c3c2)o1 [Lapatinib] (partner 2 µM)
Procedure, shortened: as §1

[4] = compound: CCN1CCN(c2ccc(Nc3cc(N(C)C(=O)Nc4c(Cl)c(OC)cc(OC)c4Cl)ncn3)cc2)CC1 [BGJ398] + Cc1nc(NC(=O)N2CCC[C@H]2C(N)=O)sc1-c1ccnc(C(C)(C)C(F)(F)F)c1 [Alpelisib] (partner 2 µM)
Procedure, shortened: as §1

Cell Line	relative viability ([1]; first compound 0.01 µM)	relative viability ([1]; first compound 0.03162 µM)	relative viability ([1]; first compound 0.1 µM)	relative viability ([1]; first compound 0.3162 µM)	relative viability ([1]; first compound 1 µM)	relative viability ([2]; first compound 0.02 µM)	relative viability ([2]; first compound 0.06325 µM)	relative viability ([2]; first compound 0.2 µM)	relative viability ([2]; first compound 0.6325 µM)	relative viability ([2]; first compound 2 µM)	relative viability ([3]; first compound 0.02 µM)	relative viability ([3]; first compound 0.06325 µM)	relative viability ([3]; first compound 0.2 µM)	relative viability ([3]; first compound 0.6325 µM)	relative viability ([3]; first compound 2 µM)	relative viability ([4]; first compound 0.01 µM)	relative viability ([4]; first compound 0.03162 µM)	relative viability ([4]; first compound 0.1 µM)	relative viability ([4]; first compound 0.3162 µM)	relative viability ([4]; first compound 1 µM)
NCI-H1975	0.915	0.903	0.859	0.899	0.785	0.268	0.298	0.314	0.246	0.226	0.707	1.24	0.907	0.84	0.791	0.601	0.642	0.745	0.667	0.61
Calu-6	1.04	1.13	1.07	1.09	1.03	0.923	1.15	1.04	0.989	0.973	1.05	1.14	0.97	1.06	1	0.861	1.01	0.984	0.999	0.944
NCI-H1993	0.8	0.825	0.87	0.935	0.746	0.811	0.881	0.757	0.878	0.592	0.784	0.776	0.846	0.829	0.743	0.689	0.623	0.642	0.746	0.7
RERF-LC-KJ	0.86	0.88	0.908	0.924	0.724	0.502	0.457	0.492	0.518	0.482	0.729	0.923	0.842	0.759	0.689	0.922	0.85	0.816	0.833	0.79
NCI-H23	1.02	1.06	1.3	0.99	1.07	0.396	0.688	0.557	0.517	0.504	0.887	1.12	1.07	1.15	0.759	0.746	0.652	0.666	0.625	0.574
HCC-366	1.11	1.07	1.07	1.06	0.924	0.151	0.0838	0.14	0.11	0.117	0.999	0.927	1.03	0.905	1.04	0.417	0.478	0.676	0.404	0.348
EMC-BAC-2	0.872	0.982	0.899	0.832	0.838	0.431	0.552	0.563	0.482	0.463	0.829	0.96	0.962	0.762	0.555	0.727	0.77	0.786	0.787	0.738
NCI-H2405	1.15	1.32	1.05	1.07	0.857	0.488	0.504	0.428	0.433	0.182	1.24	1.39	1.13	1.11	0.323	0.723	0.932	0.831	0.79	0.875
NCI-H358	0.452	0.43	0.442	0.386	0.519	0.357	0.344	0.402	0.38	0.258	0.554	0.497	0.461	0.359	0.274	0.881	0.893	0.857	0.97	0.937
NCI-H1944	0.784	0.813	0.84	0.78	0.603	0.284	0.349	0.367	0.319	0.297	0.834	0.966	0.801	0.735	0.486	0.689	0.816	0.899	0.805	0.845
EPLC-272H	1.13	0.814	0.833	0.748	0.497	0.411	0.407	0.364	0.297	0.153	0.895	1.18	1.11	0.916	0.576	0.895	0.812	0.846	0.752	0.952
EBC-1	0.215	0.222	0.178	0.23	0.21	0.407	0.518	0.42	0.413	0.459	0.221	0.203	0.191	0.189	0.231	0.806	0.85	0.917	0.812	0.884
NCI-H1915	0.976	0.977	0.988	1.01	0.928	0.956	1.15	1.12	0.774	0.97	1.01	1.1	1.02	0.928	0.971	0.981	1.05	1.1	1.08	1.05
NCI-H596	1.16	0.937	0.974	0.824	0.496	0.465	0.384	0.394	0.419	0.377	1.1	1.25	1.04	1.06	1.04	0.608	0.442	0.506	0.441	0.561
NCI-H322M	0.675	0.561	0.551	0.581	0.58	0.477	0.476	0.586	0.518	0.434	0.428	0.573	0.61	0.656	0.368	0.772	0.741	0.851	0.761	0.813
NCI-H1299	0.956	0.956	0.943	0.968	0.972	0.753	0.925	0.931	0.762	0.85	0.962	1.04	0.946	0.965	0.993	0.999	1.07	1	1.05	1.08
